In patent US8614201B2 (Janssen Pharmaceutica NV, priority 2009, dated 2013):

Target: Human TRPA1 (Homo sapiens, UniProt O75762)
Assay: Assay 1: In vitro cellular testing of TRPA1 modulation (CHO-TREx, Fluo-3 calcium fluorescence, AITC agonist)
Format: cell-based
Design: expressed in transfected cells; host or cells: CHO-TREx cells (Invitrogen), vector pcDNA4/TO
Settings: CHO-TREx cells expressing human TRPA1; Fluo-3 fluorescence (FLIPR/Tetra); agonist 15 μM allyl isothiocyanate (AITC); 30 minute antagonist incubation
Outline: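 Antagonist potency is the 50% reduction of the AITC (15 μM) calcium response, Hill-fitted against no-antagonist and 10 μM ruthenium red controls. Fluo-3-loaded (4 μM) CHO-TREx cells with tetracycline-inducible human TRPA1 got compound in HEPES saline pH 7.4 for 30 min, usually from 10 μM in three-fold dilutions.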

Chain of Human TRPA1 (O75762 whole entry): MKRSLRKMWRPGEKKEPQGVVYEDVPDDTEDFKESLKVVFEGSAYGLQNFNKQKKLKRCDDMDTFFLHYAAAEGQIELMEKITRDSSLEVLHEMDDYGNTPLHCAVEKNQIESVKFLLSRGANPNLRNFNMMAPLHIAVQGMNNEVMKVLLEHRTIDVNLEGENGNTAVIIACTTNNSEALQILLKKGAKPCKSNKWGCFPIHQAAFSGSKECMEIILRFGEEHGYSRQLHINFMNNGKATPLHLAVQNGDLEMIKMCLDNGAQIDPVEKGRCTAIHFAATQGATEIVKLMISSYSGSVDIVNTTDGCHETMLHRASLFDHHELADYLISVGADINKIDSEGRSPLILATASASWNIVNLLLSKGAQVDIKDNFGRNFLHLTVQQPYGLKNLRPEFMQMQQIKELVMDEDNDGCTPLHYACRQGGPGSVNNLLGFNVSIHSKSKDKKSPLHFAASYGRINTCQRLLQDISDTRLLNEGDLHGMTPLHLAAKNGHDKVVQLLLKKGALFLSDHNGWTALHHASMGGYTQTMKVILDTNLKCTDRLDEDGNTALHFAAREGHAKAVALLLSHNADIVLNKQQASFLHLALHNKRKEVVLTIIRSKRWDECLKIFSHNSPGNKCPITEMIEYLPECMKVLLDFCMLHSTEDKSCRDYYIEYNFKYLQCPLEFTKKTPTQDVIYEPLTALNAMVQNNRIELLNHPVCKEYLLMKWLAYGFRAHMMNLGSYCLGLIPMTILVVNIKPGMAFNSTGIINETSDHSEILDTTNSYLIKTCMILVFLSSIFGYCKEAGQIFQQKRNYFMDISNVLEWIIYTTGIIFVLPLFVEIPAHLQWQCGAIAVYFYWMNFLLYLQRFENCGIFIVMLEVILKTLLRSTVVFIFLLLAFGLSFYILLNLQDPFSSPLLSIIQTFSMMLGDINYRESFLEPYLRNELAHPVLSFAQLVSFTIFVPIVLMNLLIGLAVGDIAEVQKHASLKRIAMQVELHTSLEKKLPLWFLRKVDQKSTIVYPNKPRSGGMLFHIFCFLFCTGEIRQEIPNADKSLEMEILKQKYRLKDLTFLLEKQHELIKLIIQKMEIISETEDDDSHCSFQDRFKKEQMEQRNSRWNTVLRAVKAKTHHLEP

| Compound | IC50 [nM] |
| --- | --- |
| O=C(NCc1cc(-c2ccc(C(F)(F)F)cc2)nc(OCC(F)(F)F)n1)[C@@H]1CCCN1S(=O)(=O)c1ccc(Cl)s1 [Example 58, 1-(5-Chloro-thiophene-2-sulfonyl)-pyrrolidine-2S-carboxylic acid [2-(2,2,2-trifluoro-ethoxy)-6-(4-trifluoromethyl-phenyl)-pyrimidin-4-ylmethyl]-amide] | 5 |
| CN(C)c1nc(CNC(=O)[C@@H]2CC(F)(F)CN2S(=O)(=O)c2ccc(Cl)s2)cc(-c2ccc(C(F)(F)F)cc2)n1 [Example 59] | 81 |
| CC1CCCN1c1nc(CNC(=O)[C@@H]2CC(F)(F)CN2S(=O)(=O)c2ccc(Cl)s2)cc(-c2ccc(C(F)(F)F)cc2)n1 (stereo partly drawn) [Example 60, 1-(5-Chloro-thiophene-2-sulfonyl)-4,4-difluoro-pyrrolidine-2S-carboxylic acid [2-(2-methyl-pyrrolidin-1-yl)-6-(4-trifluoromethyl-phenyl)-pyrimidin-4-ylmethyl]-amide] | 6170 |
| O=C(NCc1cc(-c2ccc(C(F)(F)F)cc2)nc(OCC(F)(F)F)n1)[C@@H]1CC(F)(F)CN1S(=O)(=O)c1ccc(Cl)s1 [Example 61, 1-(5-Chloro-thiophene-2-sulfonyl)-4,4-difluoro-pyrrolidine-2S-carboxylic acid [2-(2,2,2-trifluoro-ethoxy)-6-(4-trifluoromethyl-phenyl)-pyrimidin-4-ylmethyl]-amide] | 105 |
| O=C(NCc1cc(-c2ccc(C(F)(F)F)cc2)nc(OCCN2CCCC2)n1)[C@@H]1CCCN1S(=O)(=O)c1ccc(Cl)s1 [Example 62, 1-(5-Chloro-thiophene-2-sulfonyl)-pyrrolidine-2S-carboxylic acid [2-(2-pyrrolidin-1-yl-ethoxy)-6-(4-trifluoromethyl-phenyl)-pyrimidin-4-ylmethyl]-amide] | 3210 |
| O=C(NCc1cc(-c2ccc(C(F)(F)F)cc2)nc(OCCN2CCCCC2)n1)[C@@H]1CCCN1S(=O)(=O)c1ccc(Cl)s1 [Example 63, 1-(5-Chloro-thiophene-2-sulfonyl)-pyrrolidine-2S-carboxylic acid [2-(2-piperidin-1-yl-ethoxy)-6-(4-trifluoromethyl-phenyl)-pyrimidin-4-ylmethyl]-amide] | 78 |
| O=C(NCc1cc(-c2ccc(C(F)(F)F)cc2)nc(OCCN2CCOCC2)n1)[C@@H]1CCCN1S(=O)(=O)c1ccc(Cl)s1 [Example 64, 1-(5-Chloro-thiophene-2-sulfonyl)-pyrrolidine-2S-carboxylic acid [2-(2-morpholin-4-yl-ethoxy)-6-(4-trifluoromethyl-phenyl)-pyrimidin-4-ylmethyl]-amide] | 234 |
| O=C(NCc1cccc(-c2cc(F)c(OC(F)F)c(F)c2)c1)[C@@H]1CCCN1S(=O)(=O)c1ccc(F)cc1 [Example 74, 1-(4-Fluorobenzenesulfonyl)-pyrrolidine-2S-carboxylic acid (4′-difluoromethoxy-3′,5′-difluorobiphenyl-3-ylmethyl)-amide] | 17 |
| CS(=O)(=O)c1ccc(-c2cccc(CNC(=O)[C@@H]3CCCN3S(=O)(=O)c3ccc(F)cc3)c2)cc1 [Example 75, 1-(4-Fluorobenzenesulfonyl)-pyrrolidine-2S-carboxylic acid (4′-methanesulfonylbiphenyl-3-ylmethyl)-amide] | 771 |
| O=C(NCc1cccc(-c2ccc([N+](=O)[O-])cc2)c1)[C@@H]1CCCN1S(=O)(=O)c1ccc(F)cc1 [Example 76, 1-(4-Fluorobenzenesulfonyl)-pyrrolidine-2S-carboxylic acid (4′-nitrobiphenyl-3-ylmethyl)-amide] | 24 |
| NS(=O)(=O)c1ccc(-c2cccc(CNC(=O)[C@@H]3CCCN3S(=O)(=O)c3ccc(F)cc3)c2)cc1 [Example 78, 1-(4-Fluorobenzenesulfonyl)-pyrrolidine-2S-carboxylic acid (4′-sulfamoyl-biphenyl-3-ylmethyl)-amide] | 6050 |
| CSc1ccc(-c2cccc(CNC(=O)[C@@H]3CCCN3S(=O)(=O)c3ccc(F)cc3)c2)cc1 [Example 82, 1-(4-Fluoro-benzenesulfonyl)-pyrrolidine-2S-carboxylic acid (4′-methylsulfanyl-biphenyl-3-ylmethyl)-amide] | 50 |
| NC(=O)c1ccc(-c2cccc(CNC(=O)[C@@H]3CCCN3S(=O)(=O)c3ccc(F)cc3)c2)cc1 [Example 85, 1-(4-Fluorobenzenesulfonyl)-pyrrolidine-2S-carboxylic acid (4′-carbamoylbiphenyl-3-ylmethyl)-amide] | 14100 |

Next, values leading:

| IC50 [nM] | Compound |
| --- | --- |
| 15 | O=C(NCc1cccc(-c2ccc(C(F)(F)F)cc2)c1)[C@@H]1CCCN1S(=O)(=O)c1ccc(F)cc1 [Example 65, 1-(4-Fluorobenzenesulfonyl)-pyrrolidine-2S-carboxylic acid (4′-trifluoromethylbiphenyl-3-ylmethyl)-amide] |
| 253 | O=C(NCc1cccc(-c2cccc(C(F)(F)F)c2)c1)[C@@H]1CCCN1S(=O)(=O)c1ccc(F)cc1 [Example 66, 1-(4-Fluorobenzenesulfonyl)-pyrrolidine-2S-carboxylic acid (3′-trifluoromethylbiphenyl-3-ylmethyl)-amide] |
| 515 | O=C(NCc1cccc(-c2ccccc2C(F)(F)F)c1)[C@@H]1CCCN1S(=O)(=O)c1ccc(F)cc1 [Example 67, 1-(4-Fluorobenzenesulfonyl)-pyrrolidine-2S-carboxylic acid (2′-trifluoromethylbiphenyl-3-ylmethyl)-amide] |
| 26 | O=C(NCc1cccc(-c2ccc(OC(F)(F)F)cc2)c1)[C@@H]1CCCN1S(=O)(=O)c1ccc(F)cc1 [Example 68, 1-(4-Fluorobenzenesulfonyl)-pyrrolidine-2S-carboxylic acid (4′-trifluoromethoxybiphenyl-3-ylmethyl)-amide] |
| 181 | O=C(NCc1cccc(-c2cccc(OC(F)(F)F)c2)c1)[C@@H]1CCCN1S(=O)(=O)c1ccc(F)cc1 [Example 69, 1-(4-Fluorobenzenesulfonyl)-pyrrolidine-2S-carboxylic acid (3′-trifluoromethoxybiphenyl-3-ylmethyl)-amide] |
| 746 | O=C(NCc1cccc(-c2ccccc2OC(F)(F)F)c1)[C@@H]1CCCN1S(=O)(=O)c1ccc(F)cc1 [Example 70, 1-(4-Fluorobenzenesulfonyl)-pyrrolidine-2S-carboxylic acid (2′-trifluoromethoxybiphenyl-3-ylmethyl)-amide] |
| 14 | O=C(NCc1cccc(-c2ccc(C(F)(F)F)c(F)c2)c1)[C@@H]1CCCN1S(=O)(=O)c1ccc(F)cc1 [Example 71, 1-(4-Fluorobenzenesulfonyl)-pyrrolidine-2S-carboxylic acid (3′-fluoro-4′-trifluoromethylbiphenyl-3-ylmethyl)-amide] |
| 17 | O=C(NCc1cccc(-c2ccc(C(F)(F)F)c(Cl)c2)c1)[C@@H]1CCCN1S(=O)(=O)c1ccc(F)cc1 [Example 72, 1-(4-Fluoro-benzenesulfonyl)-pyrrolidine-2S-carboxylic acid (3′-chloro-4′-trifluoromethyl-biphenyl-3-ylmethyl)-amide] |
| 4 | O=C(NCc1cccc(-c2ccc(OC(F)(F)F)c(F)c2)c1)[C@@H]1CCCN1S(=O)(=O)c1ccc(F)cc1 [Example 73, 1-(4-Fluorobenzenesulfonyl)-pyrrolidine-2S-carboxylic acid (3′-fluoro-4′-trifluoromethoxybiphenyl-3-ylmethyl)-amide] |
| 59 | O=C(NCc1cccc(-c2ccc(Br)cc2)c1)[C@@H]1CCCN1S(=O)(=O)c1ccc(F)cc1 [Example 77, 1-(4-Fluoro-benzenesulfonyl)-pyrrolidine-2S-carboxylic acid (4′-bromo-biphenyl-3-ylmethyl)-amide] |
| 137 | Cc1ccc(-c2cccc(CNC(=O)[C@@H]3CCCN3S(=O)(=O)c3ccc(F)cc3)c2)cc1 [Example 79, 1-(4-Fluoro-benzenesulfonyl)-pyrrolidine-2S-carboxylic acid (4′-methyl-biphenyl-3-ylmethyl)-amide] |
| 410 | COc1ccc(-c2cccc(CNC(=O)[C@@H]3CCCN3S(=O)(=O)c3ccc(F)cc3)c2)cc1 [Example 80, 1-(4-Fluorobenzenesulfonyl)-pyrrolidine-2S-carboxylic acid (4′-methoxybiphenyl-3-ylmethyl)-amide] |
| 93 | O=C(NCc1cccc(-c2ccc(OCC(F)(F)F)cc2)c1)[C@@H]1CCCN1S(=O)(=O)c1ccc(F)cc1 [Example 81, 1-(4-Fluorobenzenesulfonyl)-pyrrolidine-2S-carboxylic acid [4′-(2,2,2-trifluoroethoxy)-biphenyl-3-ylmethyl]-amide] |
| 73 | O=C(NCc1cccc(-c2ccc(Cl)nc2)c1)[C@@H]1CCCN1S(=O)(=O)c1ccc(F)cc1 [Example 83, 1-(4-Fluoro-benzenesulfonyl)-pyrrolidine-2S-carboxylic acid 3-(6-chloro-pyridin-3-yl)-benzylamide] |
| 340 | COc1ccc(-c2cccc(CNC(=O)[C@@H]3CCCN3S(=O)(=O)c3ccc(F)cc3)c2)cn1 [Example 84, 1-(4-Fluorobenzenesulfonyl)-pyrrolidine-2S-carboxylic acid 3-(6-methoxypyridin-3-yl)-benzylamide] |
| 85 | N#Cc1ccc(-c2cccc(CNC(=O)[C@@H]3CCCN3S(=O)(=O)c3ccc(F)cc3)c2)cc1 [Example 86, 1-(4-Fluoro-benzenesulfonyl)-pyrrolidine-2S-carboxylic acid (4′-cyano-biphenyl-3-ylmethyl)-amide] |
| 1790 | Cc1ccc(-c2cccc(CNC(=O)[C@@H]3CCCN3S(=O)(=O)c3ccc(F)cc3)c2)cn1 [Example 87, 1-(4-Fluorobenzenesulfonyl)-pyrrolidine-2S-carboxylic acid 3-(6-methylpyridin-3-yl)-benzyl amide] |
